Reference: ChEMBL document CHEMBL3991601, “The target landscape of clinical kinase drugs” (Science, 2017)
The source made the active and inactive calls. For most assays here, no stated cut-off is given here; in the data, actives have a measured Kd and inactives only a lower limit.

How the values were obtained:
[1] = target: Tyrosine-protein kinase ABL2 (Homo sapiens, UniProt P42684)
Aurora kinase A = target: T1, Aurora kinase A (Homo sapiens, UniProt O14965)
T1 sequence (O14965 whole entry): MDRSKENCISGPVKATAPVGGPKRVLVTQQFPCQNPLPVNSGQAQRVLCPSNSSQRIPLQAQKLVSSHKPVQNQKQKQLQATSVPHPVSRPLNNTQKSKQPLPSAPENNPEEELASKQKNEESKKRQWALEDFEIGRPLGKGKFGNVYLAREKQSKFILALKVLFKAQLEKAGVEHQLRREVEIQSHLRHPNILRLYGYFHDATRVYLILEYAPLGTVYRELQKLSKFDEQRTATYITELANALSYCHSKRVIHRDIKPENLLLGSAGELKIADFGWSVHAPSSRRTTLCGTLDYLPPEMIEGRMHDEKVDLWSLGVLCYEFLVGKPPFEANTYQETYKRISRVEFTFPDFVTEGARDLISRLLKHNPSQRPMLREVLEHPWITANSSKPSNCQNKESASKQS

[2] = target: Calcium/calmodulin-dependent protein kinase type II subunit delta (Homo sapiens, UniProt Q13557)
[3] = target: T2, ATP-dependent RNA helicase DDX42 (Homo sapiens, UniProt Q86XP3)
T2 sequence (Q86XP3 whole entry): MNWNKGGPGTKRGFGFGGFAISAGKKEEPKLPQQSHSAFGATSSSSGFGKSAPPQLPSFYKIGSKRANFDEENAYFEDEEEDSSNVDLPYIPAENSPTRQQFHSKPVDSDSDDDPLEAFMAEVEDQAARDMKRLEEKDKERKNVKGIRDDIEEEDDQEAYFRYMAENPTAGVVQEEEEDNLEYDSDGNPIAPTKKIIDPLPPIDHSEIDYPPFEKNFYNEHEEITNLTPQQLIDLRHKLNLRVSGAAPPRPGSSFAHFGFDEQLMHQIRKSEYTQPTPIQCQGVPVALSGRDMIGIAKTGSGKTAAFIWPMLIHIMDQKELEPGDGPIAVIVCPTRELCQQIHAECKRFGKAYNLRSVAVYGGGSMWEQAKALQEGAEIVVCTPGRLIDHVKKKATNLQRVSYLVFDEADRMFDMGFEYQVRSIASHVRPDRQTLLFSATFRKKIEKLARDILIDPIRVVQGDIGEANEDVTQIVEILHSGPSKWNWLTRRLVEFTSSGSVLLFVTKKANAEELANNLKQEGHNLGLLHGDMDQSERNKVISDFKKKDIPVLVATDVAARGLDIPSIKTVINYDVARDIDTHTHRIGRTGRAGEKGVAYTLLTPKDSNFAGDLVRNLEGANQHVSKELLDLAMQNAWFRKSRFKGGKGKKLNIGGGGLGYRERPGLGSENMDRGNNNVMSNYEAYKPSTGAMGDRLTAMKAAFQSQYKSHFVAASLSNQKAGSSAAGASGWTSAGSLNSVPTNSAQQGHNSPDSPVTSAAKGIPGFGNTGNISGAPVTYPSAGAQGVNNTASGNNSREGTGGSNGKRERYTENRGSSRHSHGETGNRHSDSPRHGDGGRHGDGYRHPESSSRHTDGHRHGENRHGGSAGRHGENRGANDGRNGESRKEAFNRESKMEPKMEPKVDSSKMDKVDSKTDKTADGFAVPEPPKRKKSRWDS

Ephrin type-A receptor 7 = Ephrin type-A receptor 7 (Homo sapiens, UniProt Q15375)
[4] = target: Mitogen-activated protein kinase kinase kinase kinase 5 (Homo sapiens, UniProt Q9Y4K4)
[5] = target: Mitogen-activated protein kinase 7 (Homo sapiens, UniProt Q13164)
[6] = target: Ras-related protein Rab-6A (Homo sapiens, UniProt P20340)
[7] = target: Serine/threonine-protein kinase 26 (Homo sapiens, UniProt Q9P289)
[8] = target: T3, Serine/threonine-protein kinase 4 (Homo sapiens, UniProt Q13043)
T3 sequence (Q13043 whole entry): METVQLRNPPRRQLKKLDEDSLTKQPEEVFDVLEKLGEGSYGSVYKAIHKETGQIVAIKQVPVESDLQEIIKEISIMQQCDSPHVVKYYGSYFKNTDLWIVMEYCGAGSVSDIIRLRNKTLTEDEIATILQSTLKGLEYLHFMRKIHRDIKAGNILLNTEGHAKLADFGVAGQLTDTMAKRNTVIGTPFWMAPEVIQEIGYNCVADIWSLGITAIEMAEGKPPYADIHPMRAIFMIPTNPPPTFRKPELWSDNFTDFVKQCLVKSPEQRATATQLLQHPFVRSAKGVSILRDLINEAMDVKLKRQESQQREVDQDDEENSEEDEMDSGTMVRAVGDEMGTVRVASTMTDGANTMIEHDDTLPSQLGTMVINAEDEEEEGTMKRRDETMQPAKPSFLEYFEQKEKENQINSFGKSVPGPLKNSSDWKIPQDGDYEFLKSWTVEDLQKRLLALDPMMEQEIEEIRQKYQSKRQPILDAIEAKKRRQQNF

[9] = target: T4, Succinate--CoA ligase [ADP-forming] subunit beta, mitochondrial (Homo sapiens, UniProt Q9P2R7)
T4 sequence (Q9P2R7 whole entry): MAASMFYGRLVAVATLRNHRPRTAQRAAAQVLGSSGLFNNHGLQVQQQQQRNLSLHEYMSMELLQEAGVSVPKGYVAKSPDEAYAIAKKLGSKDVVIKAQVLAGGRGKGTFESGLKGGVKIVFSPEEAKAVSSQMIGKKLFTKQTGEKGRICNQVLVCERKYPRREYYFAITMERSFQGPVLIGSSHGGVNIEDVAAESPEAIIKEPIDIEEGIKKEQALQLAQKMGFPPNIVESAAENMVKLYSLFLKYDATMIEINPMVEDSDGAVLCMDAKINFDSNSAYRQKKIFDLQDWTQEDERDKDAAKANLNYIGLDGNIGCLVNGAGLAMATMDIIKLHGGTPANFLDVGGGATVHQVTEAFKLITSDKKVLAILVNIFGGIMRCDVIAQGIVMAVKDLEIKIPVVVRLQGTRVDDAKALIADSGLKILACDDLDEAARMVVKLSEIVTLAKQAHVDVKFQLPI

[10] = target: Elongation factor Tu, mitochondrial (Homo sapiens, UniProt P49411)

Measured: Kd

Sequence of Ephrin type-A receptor 7 (Q15375 whole entry): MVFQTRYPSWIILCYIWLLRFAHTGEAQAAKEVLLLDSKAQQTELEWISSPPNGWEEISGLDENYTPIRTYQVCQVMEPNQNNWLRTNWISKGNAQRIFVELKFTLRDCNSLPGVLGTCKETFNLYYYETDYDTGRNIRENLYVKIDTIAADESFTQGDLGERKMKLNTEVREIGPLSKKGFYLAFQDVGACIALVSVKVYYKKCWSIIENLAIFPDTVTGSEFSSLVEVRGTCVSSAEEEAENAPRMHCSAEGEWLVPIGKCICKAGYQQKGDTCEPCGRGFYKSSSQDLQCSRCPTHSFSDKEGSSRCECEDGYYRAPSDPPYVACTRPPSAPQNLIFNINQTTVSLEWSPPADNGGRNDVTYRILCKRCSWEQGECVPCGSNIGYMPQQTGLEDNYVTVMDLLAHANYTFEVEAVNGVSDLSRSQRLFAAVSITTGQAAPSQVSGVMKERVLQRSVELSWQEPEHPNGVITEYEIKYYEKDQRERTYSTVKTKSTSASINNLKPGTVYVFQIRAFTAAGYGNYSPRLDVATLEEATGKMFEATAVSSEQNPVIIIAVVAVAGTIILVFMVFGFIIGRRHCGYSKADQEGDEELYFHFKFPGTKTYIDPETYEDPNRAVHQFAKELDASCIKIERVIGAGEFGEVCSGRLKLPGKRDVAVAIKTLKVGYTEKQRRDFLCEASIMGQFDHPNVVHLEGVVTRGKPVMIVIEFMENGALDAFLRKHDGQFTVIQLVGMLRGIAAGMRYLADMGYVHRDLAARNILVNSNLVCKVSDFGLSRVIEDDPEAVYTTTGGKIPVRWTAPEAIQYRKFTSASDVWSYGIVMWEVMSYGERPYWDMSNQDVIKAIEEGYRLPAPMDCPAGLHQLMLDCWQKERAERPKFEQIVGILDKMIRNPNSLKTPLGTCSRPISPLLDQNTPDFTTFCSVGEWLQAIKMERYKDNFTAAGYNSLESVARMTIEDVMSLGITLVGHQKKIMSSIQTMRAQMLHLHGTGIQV
Sequence of Tyrosine-protein kinase ABL2 (P42684 whole entry): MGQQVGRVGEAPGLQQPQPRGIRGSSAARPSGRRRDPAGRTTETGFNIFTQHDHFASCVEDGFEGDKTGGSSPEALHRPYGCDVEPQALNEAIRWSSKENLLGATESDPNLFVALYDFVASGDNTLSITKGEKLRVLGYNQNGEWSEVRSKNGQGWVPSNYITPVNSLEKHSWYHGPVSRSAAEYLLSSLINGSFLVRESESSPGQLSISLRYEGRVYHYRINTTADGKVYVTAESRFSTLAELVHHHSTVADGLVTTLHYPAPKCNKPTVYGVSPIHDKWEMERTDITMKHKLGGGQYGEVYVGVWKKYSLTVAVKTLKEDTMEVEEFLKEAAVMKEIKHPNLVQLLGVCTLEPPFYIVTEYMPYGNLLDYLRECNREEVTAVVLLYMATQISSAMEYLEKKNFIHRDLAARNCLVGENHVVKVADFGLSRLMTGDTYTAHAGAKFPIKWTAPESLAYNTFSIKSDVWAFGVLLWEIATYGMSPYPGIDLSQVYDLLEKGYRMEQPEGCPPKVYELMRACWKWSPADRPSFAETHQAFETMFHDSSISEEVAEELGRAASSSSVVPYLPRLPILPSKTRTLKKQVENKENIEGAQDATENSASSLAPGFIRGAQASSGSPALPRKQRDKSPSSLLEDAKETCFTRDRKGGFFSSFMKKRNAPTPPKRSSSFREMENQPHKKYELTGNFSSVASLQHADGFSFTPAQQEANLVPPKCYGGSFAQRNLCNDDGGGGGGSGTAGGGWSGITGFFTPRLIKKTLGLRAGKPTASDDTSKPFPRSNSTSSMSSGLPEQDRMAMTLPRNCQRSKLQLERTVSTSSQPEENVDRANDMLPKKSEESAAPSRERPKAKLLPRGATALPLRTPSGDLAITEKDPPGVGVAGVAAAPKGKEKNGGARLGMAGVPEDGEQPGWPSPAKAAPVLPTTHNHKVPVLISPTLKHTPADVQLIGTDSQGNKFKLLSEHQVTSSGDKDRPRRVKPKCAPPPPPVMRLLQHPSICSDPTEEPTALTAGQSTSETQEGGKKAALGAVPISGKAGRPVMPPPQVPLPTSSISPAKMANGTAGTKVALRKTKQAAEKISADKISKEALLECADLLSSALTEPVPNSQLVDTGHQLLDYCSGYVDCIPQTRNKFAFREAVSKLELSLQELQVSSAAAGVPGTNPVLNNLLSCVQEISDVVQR
Sequence of Serine/threonine-protein kinase 26 (Q9P289 whole entry): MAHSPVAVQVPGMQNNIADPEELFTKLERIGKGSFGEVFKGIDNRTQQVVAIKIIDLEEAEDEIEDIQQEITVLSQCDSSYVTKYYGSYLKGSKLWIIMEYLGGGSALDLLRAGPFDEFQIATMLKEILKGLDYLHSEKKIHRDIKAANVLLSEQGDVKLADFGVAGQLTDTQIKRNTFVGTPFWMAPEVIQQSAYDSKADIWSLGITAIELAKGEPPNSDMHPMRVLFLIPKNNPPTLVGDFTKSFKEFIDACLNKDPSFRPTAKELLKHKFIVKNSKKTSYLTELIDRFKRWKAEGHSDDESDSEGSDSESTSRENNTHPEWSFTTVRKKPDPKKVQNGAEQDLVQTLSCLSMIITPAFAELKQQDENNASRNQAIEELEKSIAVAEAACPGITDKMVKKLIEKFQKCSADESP
Sequence of Mitogen-activated protein kinase kinase kinase kinase 5 (Q9Y4K4 whole entry): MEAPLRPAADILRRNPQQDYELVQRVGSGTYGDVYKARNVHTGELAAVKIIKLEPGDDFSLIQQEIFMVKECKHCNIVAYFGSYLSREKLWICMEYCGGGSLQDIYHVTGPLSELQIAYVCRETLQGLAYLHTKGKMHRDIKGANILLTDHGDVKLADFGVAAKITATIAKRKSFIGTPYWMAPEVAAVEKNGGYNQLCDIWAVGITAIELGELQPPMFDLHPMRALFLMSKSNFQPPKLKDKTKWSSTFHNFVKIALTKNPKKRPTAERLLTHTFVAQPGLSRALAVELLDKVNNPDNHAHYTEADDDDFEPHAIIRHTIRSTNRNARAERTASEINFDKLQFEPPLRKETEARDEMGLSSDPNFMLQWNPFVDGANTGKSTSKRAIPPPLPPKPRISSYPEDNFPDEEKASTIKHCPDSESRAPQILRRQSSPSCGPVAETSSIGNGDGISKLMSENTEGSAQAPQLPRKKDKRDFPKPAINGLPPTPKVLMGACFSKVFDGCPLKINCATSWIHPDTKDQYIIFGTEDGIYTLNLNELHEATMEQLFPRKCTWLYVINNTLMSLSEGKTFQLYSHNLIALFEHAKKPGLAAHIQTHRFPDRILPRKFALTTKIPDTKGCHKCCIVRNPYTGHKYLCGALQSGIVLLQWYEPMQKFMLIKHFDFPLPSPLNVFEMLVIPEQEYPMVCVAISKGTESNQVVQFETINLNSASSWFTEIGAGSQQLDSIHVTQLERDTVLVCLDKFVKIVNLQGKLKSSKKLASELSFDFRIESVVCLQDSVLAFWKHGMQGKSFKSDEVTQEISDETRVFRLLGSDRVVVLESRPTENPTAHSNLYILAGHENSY
Sequence of Calcium/calmodulin-dependent protein kinase type II subunit delta (Q13557 whole entry): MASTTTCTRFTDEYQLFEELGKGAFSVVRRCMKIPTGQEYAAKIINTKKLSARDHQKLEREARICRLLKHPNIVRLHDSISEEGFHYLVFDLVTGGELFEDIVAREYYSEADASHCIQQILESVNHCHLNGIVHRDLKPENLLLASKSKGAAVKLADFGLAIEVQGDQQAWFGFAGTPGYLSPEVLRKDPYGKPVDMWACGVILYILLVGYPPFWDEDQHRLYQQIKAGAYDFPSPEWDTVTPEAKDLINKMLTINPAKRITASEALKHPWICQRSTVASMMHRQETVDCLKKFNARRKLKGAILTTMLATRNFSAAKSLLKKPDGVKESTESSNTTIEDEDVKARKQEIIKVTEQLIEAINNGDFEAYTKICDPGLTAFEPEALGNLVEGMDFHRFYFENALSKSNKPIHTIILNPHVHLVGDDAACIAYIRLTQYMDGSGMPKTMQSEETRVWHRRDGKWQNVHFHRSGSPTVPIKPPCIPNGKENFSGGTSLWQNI
Sequence of Mitogen-activated protein kinase 7 (Q13164 whole entry): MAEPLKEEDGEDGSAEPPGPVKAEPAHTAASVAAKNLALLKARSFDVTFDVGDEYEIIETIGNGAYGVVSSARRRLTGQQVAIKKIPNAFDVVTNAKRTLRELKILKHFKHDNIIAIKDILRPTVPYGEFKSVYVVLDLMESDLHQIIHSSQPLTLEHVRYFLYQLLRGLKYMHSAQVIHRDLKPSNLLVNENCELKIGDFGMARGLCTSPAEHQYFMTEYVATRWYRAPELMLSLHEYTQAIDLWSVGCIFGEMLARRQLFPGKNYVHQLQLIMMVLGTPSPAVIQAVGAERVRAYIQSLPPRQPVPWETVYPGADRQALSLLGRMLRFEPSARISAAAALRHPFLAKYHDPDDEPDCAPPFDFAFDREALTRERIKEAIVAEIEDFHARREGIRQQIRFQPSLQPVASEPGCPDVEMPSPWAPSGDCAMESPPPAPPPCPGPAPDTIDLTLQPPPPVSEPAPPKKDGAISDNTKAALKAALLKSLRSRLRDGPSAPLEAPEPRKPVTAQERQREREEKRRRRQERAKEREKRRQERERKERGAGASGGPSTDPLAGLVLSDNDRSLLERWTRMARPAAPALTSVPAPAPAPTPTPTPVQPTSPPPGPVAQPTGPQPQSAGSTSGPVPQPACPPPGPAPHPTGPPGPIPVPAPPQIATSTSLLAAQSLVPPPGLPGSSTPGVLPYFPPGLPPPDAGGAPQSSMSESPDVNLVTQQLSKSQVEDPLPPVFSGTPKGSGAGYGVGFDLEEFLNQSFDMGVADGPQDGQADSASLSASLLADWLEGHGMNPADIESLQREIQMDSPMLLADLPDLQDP
Sequence of Ras-related protein Rab-6A (P20340 whole entry): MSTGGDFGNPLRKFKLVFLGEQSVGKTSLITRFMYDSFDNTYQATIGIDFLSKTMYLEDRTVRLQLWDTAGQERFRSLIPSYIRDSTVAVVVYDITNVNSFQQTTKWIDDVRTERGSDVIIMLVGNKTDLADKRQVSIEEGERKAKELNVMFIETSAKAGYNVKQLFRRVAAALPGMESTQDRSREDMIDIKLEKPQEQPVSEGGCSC

CCn1c(C(=O)N(C2CC2)C2CC2)cc2c3c(ncn3C)c(Nc3cc(C)n(C)n3)nc21 [BMS-911543]
inactive: [1] > 30 µM | Aurora kinase A > 30 µM | [2] > 30 µM | [3] > 30 µM | Ephrin type-A receptor 7 > 30 µM | [4] > 30 µM | [5] > 30 µM | [6] > 30 µM | [7] > 30 µM | [8] > 30 µM | [9] > 30 µM | [10] > 30 µM
